Reference: patent publication US11234971B2, “Methods of treating cancer comprising administration of a glucocorticoid receptor modulator and a cancer chemotherapy agent” (Corcept Therapeutics Incorporated, priority 2018, dated 2022)

Experiments:
MIA PaCa-2 xenograft = MIA PaCa-2 xenograft tumor growth in immunodeficient mice; format: in vivo
Description: The present example, Example 3, provides results of administration of the glucocorticoid receptor modulator relacorilant to cancerous cells. […] The MIA PaCa-2 xenograft model uses MIA PaCa-2 cell-line cells (pancreatic tumor cells derived from a pancreatic adenocarcinoma from a patient) engrafted into immunodeficient mice. The ovarian OVCAR-5 cell line is derived from a human epithelial carcinoma of the ovary, and was established from ascitic fluid obtained (prior to cytotoxic treatment) from a patient with progressive ovarian adenocarcinoma.
FIG. 10A. Relacorilant sensitizes the MIA PaCa-2 xenograft to paclitaxel. Tumor volume of PaCa-2 xenograft tumors implanted in immunodeficient mice is shown as a function of time (days) after implantation in the presence of vehicle (filled circles), paclitaxel (7.5 mg/kg; filled squares), relacorilant alone (upwardly pointing triangles), and relacorilant+7.5 mg/kg paclitaxel (downwardly pointing triangles). 7.5 mg/kg paclitaxel was administered three times (at the days indicated by the dashed vertical lines, indicating days 8, 12, and 16 following tumor implantation into the mice).
FIG. 10B. Relacorilant with Paclitaxel Reduces MIA PaCa-2 xenograft Tumor Volume. Initial tumor volume of PaCa-2 xenograft tumors implanted in immunodeficient mice was less than 400 cubic millimeters (mm^3). […] Tumor size progression is thus indicated by lines descending from the top (100%) value. The tumor-bearing mice were treated with vehicle, relacorilant (30 mg/kg every day), paclitaxel (three doses of 7.5 mg/kg paclitaxel, one dose administered on each of the days indicated in FIG. 10A), and the combination relacorilant (30 mg/kg every day) with paclitaxel (7.5 mg/kg doses of paclitaxel each administered on days 8, 12, and 16 post implantation). […] Xenograft tumor growth was slowed by combined relacorilant+paclitaxel as compared to either paclitaxel alone or relacorilant alone. Relacorilant thus enhanced sensitivity to paclitaxel in the pancreatic MIA PaCa-2 xenograft model.

glucocorticoid receptor = target: T1, glucocorticoid receptor (Homo sapiens, UniProt P04150); settings: cited from earlier work
T1 sequence (P04150 1-777): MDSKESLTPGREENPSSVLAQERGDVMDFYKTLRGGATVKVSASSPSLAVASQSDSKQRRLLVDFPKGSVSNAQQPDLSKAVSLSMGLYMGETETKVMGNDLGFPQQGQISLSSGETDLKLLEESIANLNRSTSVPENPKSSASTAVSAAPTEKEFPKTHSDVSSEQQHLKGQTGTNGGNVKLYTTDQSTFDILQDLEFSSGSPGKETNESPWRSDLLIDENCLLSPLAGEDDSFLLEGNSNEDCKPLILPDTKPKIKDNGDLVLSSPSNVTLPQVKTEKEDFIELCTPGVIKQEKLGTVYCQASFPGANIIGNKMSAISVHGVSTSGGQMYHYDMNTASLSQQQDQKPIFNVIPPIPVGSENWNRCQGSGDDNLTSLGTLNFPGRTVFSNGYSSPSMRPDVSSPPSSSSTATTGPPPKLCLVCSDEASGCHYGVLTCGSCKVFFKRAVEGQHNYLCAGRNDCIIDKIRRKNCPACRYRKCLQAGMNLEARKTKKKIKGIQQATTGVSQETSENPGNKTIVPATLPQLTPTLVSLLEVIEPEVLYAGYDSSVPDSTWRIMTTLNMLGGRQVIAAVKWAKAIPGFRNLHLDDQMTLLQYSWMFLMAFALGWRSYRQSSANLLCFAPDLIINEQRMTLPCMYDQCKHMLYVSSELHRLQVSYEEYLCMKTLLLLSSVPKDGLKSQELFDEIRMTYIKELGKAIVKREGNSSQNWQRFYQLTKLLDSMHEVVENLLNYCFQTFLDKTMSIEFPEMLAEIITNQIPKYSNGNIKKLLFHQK

GR-controlled genes = test: Whole blood mRNA expression (NanoString) in cancer patients of study NCT02762981, baseline vs C1D15; format: in vivo, human; settings: for expression levels of COX2, DUSP1, GSK3b, MCL-1, PIK3CG and RGS-2 (mRNA): 40 cancer patients (FIG. 5B); for genes downregulated in whole blood, baseline to C1D15: 800-gene panel, relacorilant+nab-paclitaxel; for enrichment of genes shared in the sets induced by prednisone and suppressed by relacorilant / genes shared in the sets induced by prednisone and suppressed by relacorilant: top 200 genes each
Protocol: Blood was collected at baseline, prior to administration of relacorilant or nab-paclitaxel. Blood was also drawn in the morning, pre-dose, on cycle 1, day 15. Blood (in the amount of 2.5 milliLiters (mL)) was drawn into a PAXGene blood RNA tube (Qiagen) using a butterfly needle. The tube was sealed and gently inverted 10 times. The tube was frozen in dry ice and stored at −80° C. until RNA extraction.
Paired baseline and cycle 1, day 15 (C1D15) specimens were thawed and processed in the same batch. RNA was isolated using the PAXgene Blood RNA kit (Qiagen) using the protocol recommended by the manufacturer. RNA yield was quantified using a NanoDrop ND-2000 spectrophotometer (ThermoFisher Scientific). RNA was assessed using a custom 33-gene panel after mRNA sample preparation and hybridization using NanoString nCounter XT Assay, following the operation and maintenance instructions for the NanoString prep station and digital analyzer. Specific RNA transcripts were quantified using a Nanostring nCounter FLEX instrument (NanoString Technologies) and analyzed using nSolver 3.0. (Nanostring Technologies, Seattle Wash., USA).
Housekeeping gene pairwise correlations were determined using nSolver 3.0 (NanoString Technologies). Test genes were normalized to the housekeeping genes HPRT1, PPIB, TRAP1, EEF1A1, and TBP. Change from baseline was calculated using the RNA counts at baseline and cycle 1, day 15 as follows: Change from Baseline=(C1D15−baseline)/(baseline) Results Housekeeping Genes Selection
Calculations For FIG. 6, the normalized counts of 10 GR-controlled genes were averaged. Change from baseline of these averaged values was calculated per patient using the formula: Percent change from baseline=((average value at C1D15)−(average value at baseline))/(average value at baseline)*100Gene set enrichment statistics were calculated using the program available at the URL: Nemates.org/MA/progs/overlap_stats_prog.html
RNA isolation and quantification RNA was assessed using a custom 800-gene panel after mRNA sample preparation and hybridization using NanoString nCounter Assay, following the operation and maintenance instructions for the NanoString prep station and digital analyzer. The 800 gene panel was comprised of the Nanostring 10360™ panel plus the following 10 custom probes:
Data normalization and analysis Housekeeping gene pairwise correlations were determined using advanced analysis in nSolver 3.0 (NanoString Technologies). Test genes were normalized to the housekeeping genes selected by geNORM. […]

[1] = patients with progressive disease

SMILES: Cn1cc(S(=O)(=O)N2CCC3=Cc4c(cnn4-c4ccc(F)cc4)C[C@]3(C(=O)c3cc(C(F)(F)F)ccn3)C2)cn1 [relacorilant, (R)-(1-(4-fluorophenyl)-6-((1-methyl-1H-pyrazol-4-yl)sulfonyl)-4,4a,5,6,7,8-hexahydro-1H-pyrazolo[3,4-g]isoquinolin-4a-yl)(4-(trifluoromethyl)pyridin-2-yl)methanone]
- time to progression (fraction of tumors whose volume remained below 400 mm^3) (MIA PaCa-2 xenograft; relacorilant (30 mg/kg every day) added to paclitaxel 7.5 mg/kg days 8, 12, 16, compared to paclitaxel alone, p<0.0001): delayed the time to progression
- tumor growth (tumor volume over time) (MIA PaCa-2 xenograft; relacorilant added to 7.5 mg/kg paclitaxel (days 8, 12, 16), compared to paclitaxel alone, p<0.0001): delayed tumor growth
- time to progression (fraction of tumors whose volume remained below 400 mm^3) (MIA PaCa-2 xenograft; single agent, relacorilant 30 mg/kg every day or paclitaxel 7.5 mg/kg on days 8, 12, 16): nearly superimposed on the vehicle line
- binding to the glucocorticoid receptor (glucocorticoid receptor): potently binds
- expression levels of COX2, DUSP1, GSK3b, MCL-1, PIK3CG, RGS-2, SGK1 and STAT3 (mRNA) (GR-controlled genes; 21 cancer patients (FIG. 5A), patients who derived benefit from relacorilant+nab-paclitaxel): decreased as compared to baseline
- expression levels of COX2, DUSP1, GSK3b, MCL-1, PIK3CG, RGS-2, SGK1 (mRNA) (GR-controlled genes; 21 cancer patients (FIG. 5A), patients whose cancer progressed): did not exhibit decreased levels
- expression levels of COX2, DUSP1, GSK3b, MCL-1, PIK3CG and RGS-2 (mRNA) (GR-controlled genes; patients who derived benefit from relacorilant+nab-paclitaxel): decreased as compared to baseline
- expression levels of COX2, DUSP1, GSK3b, MCL-1, PIK3CG and RGS-2 (mRNA) (GR-controlled genes; patients whose cancer progressed): did not exhibit decreased levels
- genes downregulated in whole blood, baseline to C1D15 (GR-controlled genes; PD patients): 30 genes
- genes downregulated in whole blood, baseline to C1D15 (GR-controlled genes; SD/PR/CR patients): 92 genes
- normalized DUSP1 mRNA counts, baseline vs cycle 1 day 15 (GR-controlled genes; all patients, relacorilant + nab-paclitaxel, paired t-test p=0.065): not significantly different
- normalized DUSP1 mRNA counts, baseline vs cycle 1 day 15 (GR-controlled genes; patients experiencing benefit (SD, PR, CR), relacorilant + nab-paclitaxel, paired t-test p=0.015): significant decrease
- decrease in DUSP1 counts, baseline vs cycle 1 day 15 (GR-controlled genes; patients with progressive disease, relacorilant + nab-paclitaxel): not observed
- enrichment of genes shared in the sets induced by prednisone and suppressed by relacorilant (GR-controlled genes; patients who benefited): 2.2 fold
- genes shared in the sets induced by prednisone and suppressed by relacorilant (GR-controlled genes; patients who benefited, p=3×10^−30): 116 genes
- enrichment of genes shared in the sets induced by prednisone and suppressed by relacorilant (GR-controlled genes; [1]): 0.7 fold
- genes shared in the sets induced by prednisone and suppressed by relacorilant (GR-controlled genes; [1]): 38 genes
